According to US9360471B2, “Anti-aging agents and methods to identify them” (priority 2009, dated 2016):

Legend:
[1] = system: NIH3T3 cells; experiment: TPA-induced transformation of NIH3T3 cells, colony formation in soft agar; assay type: cell-based, mouse; conditions: 10 μM TPA + AICAR (40 μM)
Description: (A) TPA (10 μM) was incubated with NIH3T3 cells in 0.39% soft agar in the presence of DMSO, 1 nM rapamycin, or 250 nM AICAR, and cultured for 7 days prior to counting colonies under a microscope. (B) The data represents the average of four experiments.
The experiment was done as in Example 19. In brief, 1500 NIH3T3 cells were mixed with 50 μL, of 0.4% agarose in culture medium (basal medium with 10% bovine fetal serum), layered on 96-well plates pre-covered with 50 μL of 0.8% agarose in culture medium. 100 μL of culture medium containing drugs to make final DMSO, 10 μM TPA, 40 μM AICAR, or 10 μM TPA+[…] was then added into the wells. The cells were incubated in a 37° C. incubator with 5% CO2 for more than 7 days. 50 μL of fresh medium was added every 5 days. Colonies were then counted under a microscope.
Transformation of NIH 3T3 cells is a good in vitro tumorigenesis assay, which measures colony formation in soft agar (termed as anchorage-independent growth). The […] TPA (12-O-Tetradecanoylphorbol 13-acetate) is known to stimulate protein kinase C (PKC), activate oncogenes and transform mouse embryonic fibroblast NIH3T3 cells. The TPA-induced anchorage-independent growth of NIH3T3 cell was employed as a tumorigenesis assay. […] Colonies were then counted under a microscope. […]

[2] = system: NIH3T3 cells; experiment: mitochondrial mass in NIH3T3 cells treated with TPA; assay type: cell-based, mouse; conditions: 10 μM TPA+40 μM AICAR, two days
Description: NIH3T3 cells were incubated in DMEM medium (DMEM with 10% FCS, 100 units/mL penicillin, 100 μg/mL streptomycin and 2 mM glutamine) in the presence of control DMSO, 10 μM TPA, 1 nM rapamycin, 10 μM TPA+1 nM rapamycin, 40 μM AICAR, or 10 μM TPA+40 μM AICAR at 37° C. in a humidified atmosphere consisting of 95% air and 5% CO2 for two days. Cells were then harvested by trypsin and fixed by 60% ethanol. The cells were stained with MitoTracker Greeen FM in darkness for 30 min prior to FACS analysis. The data represents the average of a triplica-experiment.

[3] = system: senescent WI-38 cells (human primary fibroblast); experiment: loss of senescent WI-38 cells, β-galactosidase (X-gal) staining; assay type: cell-based; conditions: 56 days in senescence; 50 pM rapamycin, 250 μM AICAR, 20 μg/mL EGCG, 1.6 μg/mL GSE, 20 μg/mL bilberry extract, 1 μM AITC, 12.5 μM 2-deoxyglucose; 3-day-on/7-day-off (AICAR 2-day-on/8-day-off)
Description: AICAR and reduced glucose treatment were incubated with cells in a 2-day-on/8-day-off cycle, while the rest of agents were in a 3-day-on/7-day-off cycle. The treatment started at passage 29. The medium was refreshed every 3 days. After 56-days from passage 31 (senescence), the cells were briefly fixed in 2% formaldehyde/0.2% glutaraldehyde and stained with 1 mg/mL 5-bromo-4-chloro-3-indolyl β-D-galactoside (X-gal) (in buffer containing 40 mM citric acid/sodium phosphate, pH 6.0, 5 mM potassium ferrocyanide, 5 mM potassium ferricyanide, 150 mM NaCl, and 2 mM MgCl2) at 37° C. for 18 hrs for the senescence marker, cellular β-galactosidase activity (blue in color picture and dark grey in black/white picture). Surviving senescent cells were viewed under a microscope.
This invention discloses that CR or rapamycin also prolongs senescence and prevents cell death induced by telomere dysfunction in human cells. Primary human embryonic lung fibroblasts WI-38 were used. […] Cells at passage 29 were treated with 50 pM rapamycin. The treatment was on a 10-day cycle of 3-day with and 7-day without rapamycin (also termed as 3-day-on/7-day-off cycle). […] Due to increased cytosol β-galactosidase activity, senescent cells are stained a blue color (shown as dark grey in black/white picture). […] Rapamycin didn't transform cells since the senescence marker was still present and cell growth was not observed.

[4] = system: human lymphoblastoid L40; experiment: mitochondrial mass in human lymphoblastoid L40, MitoTracker Green FM and FACS; assay type: cell-based; conditions: 2-day treatment; 10 μM LY294002, 2 μM DATS, 1 μM BITC, 1 μM PITC, 2 μg/mL resveratrol, 0.03 μM lycopene, 6.7 μM PEITC, 5 mM silibinin, 1.25 mM selenite, 2.5 mM genistein, 250 μg/mL GSE, 50 μg/mL EGCG, 3 mg/mL bilberry extract, 1 μM AITC, 50 pM rapamycin, 250 μM AICAR
From the text: Mitochondrial mass was monitored by staining the 60% Ethanol-fixed cells with MitoTracker Green FM prior to FACS analysis.

[5] = system: WI-38 cells; experiment: MPP+ induced ROS in WI-38 cells, dehydrorhodamine 123 and FACS; assay type: cell-based, human; conditions: 200 μM MPP^+, 3 days
Description: MPP+ with various concentrations of rapamycin was incubated with WI-38 cells for 3 days. Cells were stained with dehydrorhodamine 123 in the dark for 30 min prior to FACS analysis.
MPP^+, an inhibitor of complex I (NADH CoQ1 reductase) in the mitochondrial respiratory chain, is a dopaminergic neurotoxin. It is commonly used to induce Parkinson's disease in […]. Human primary fibroblast WI-38 cells were treated with 200 μM MPP^+ for 3 days. Cells were then stained with dehydrorhodamine 123 in the dark for 30 min. Cells were then analyzed by FACS.

Row | Structure (SMILES) | anchorage-independent growth of NIH3T3 cells induced by TPA [1] | mitochondrial mass decrease induced by TPA [2] | loss of the senescent WI-38 cells [3] | mitochondrial mass [4] | ROS level in WI-38 cells [5]
1 | NC(=O)c1ncn([C@@H]2O[C@H](CO)[C@@H](O)[C@H]2O)c1N [AICAR, 5-aminoimidazole-4-carboxamide-1-beta-D-ribofuranoside, reference compound] | inhibits the anchorage-independent growth | reverses the decrease in mitochondrial mass | prevented | increased | –
2 | C[n+]1ccc(-c2ccccc2)cc1 [MPP^+] | – | – | – | – | greatly increased ROS level
